pIC50: −log10 of the molar value. Values after ≈ are worked out from the molar mass of the structure shown.
Key:
[1] = target: recombinant full-length human hydroxyacid oxidase 1 (HAO1), the equivalent of hGOX (Homo sapiens (Human), UniProt Q9UJM8); assay: In-vitro human glycolate oxidase (hGOX) assay (Amplex red/HRP fluorescence); format: biochemical
Protocol: Biological Activity Assay: In-Vitro Human Glycolate Oxidase (hGOX) Assay
The in-vitro glycolate oxidase assay was performed using recombinant full-length human hydroxyacid oxidase 1 (HAO1), the equivalent of hGOX. […] Purified HAO1 was dissolved in assay buffer consisting of 10 mM NaCl, 110 mM KCl, 2 mM MgCl2, 50 mM HEPES (pH 7.4) and 0.01% Triton™ X-100.

[2] = Solubility in phosphate buffered saline (PBS), pH 7.4; format: physicochemical; settings: phosphate buffer (PBS), aqueous buffer, kinetic from dmso stock; phosphate buffered saline pH 7.4, 1% DMSO, 1 hour shaking at room temperature
Protocol: (§1) For testing compound solubility in phosphate buffered saline (PBS), compound stock solutions were prepared at 10 mM in 100% DMSO. For testing in aqueous solution, the phosphate buffer was replaced with deionized, distilled water. Eleven grams Na2HPO4 (FW: 141.96 g/mol) and 3.5 g NaH2PO4.2H2O (FW: 156.03 g/mol) was added to 1 L Milli-Q water and adjusted to a pH to 7.4 with phosphoric acid or sodium hydroxide. For incubation, media were preheated to 37° C. Eight μL aliquots of reference and test compound stock solutions (10 mM) were added into 792 μL of 100 mM phosphate buffer (pH 7.4). The final DMSO concentration was 1%. Sample tubes were shaken for 1 hour at 1000 rpm at room temperature.
(§2) The calibration curve was prepared with 300-μM spiking solution (SS) in MeOH:acetonitrile (4:1). Six μL of 10 mM compound was added in 194 μL MeOH/acetonitrile (4:1). Samples were centrifuged for 10 minutes at 12,000 rpm to precipitate undissolved particles. Supernatants were transferred to a new tube or plate and dilute 10-fold and 100-fold with 100 mM buffer. Samples were prepared for LC-MS/MS analysis by adding 5 μL each sample (undiluted, 10-fold diluted, and 100-fold diluted) and 5 μL of standard curve samples to 95 μL of acetonitrile (containing internal standard).

[3] = Solubility in aqueous solution (deionized, distilled water); format: physicochemical; settings: kinetic from dmso stock, 1% DMSO, read-out: Aqueous Solubility H2O
Protocol: as §1, §2

[4] = Metabolic stability in human liver microsomal preparation; format: in vitro ADME; settings: pH 7.4, human liver microsomes, NADPH, 37° C.; for half-life at 1 μM: 0-45 min, read-out: Metabolic Stability t1/2
Protocol: For evaluating the metabolic stability in human liver microsomal preparation, three buffers were prepared. Buffer A had 1.0 L of 0.1 M monobasic potassium phosphate buffer containing 1.0 mM EDTA. Buffer B had 1.0 L of 0.1 M dibasic potassium phosphate buffer containing 1.0 mM EDTA. Buffer C had 0.1 M potassium phosphate buffer, 1.0 mM EDTA, adjusted to a pH 7.4 via titrating 700 mL buffer B with buffer A. Reference compound (ketanserin) and test compounds spiking solutions (500 μM) were prepared by adding 10 μL of 10 mM DMSO stock compound solution into 190 μL acetonitrile. A volume of 1.5 μL 500 μM spiking solution and 18.75 μL 20 mg/mL human liver microsomes were added into 479.75 μL of Buffer C on ice. A stock solution of 6 mM NADPH was prepared by dissolving NADPH into Buffer C.
Wells on an assay plate were iced and filled with 30 μL 1.5-μM spiking solution containing 0.75 mg/mL microsomes solution and designated for different timepoints (0-, 5-, 15-, 30-, 45-min). For the 0-min timepoint, 135 μL acetonitrile containing internal standard were added followed by 15 μL of NADPH stock solution (6 mM). All other plates were preincubated at 37° C. for 5 minutes and 15 μL NADPH stock solution (6 mM) were added to the plates to start the reaction. At 5-min, 15-min, 30-min, and 45-min, 135 μL acetonitrile containing internal standard were added to the wells of corresponding plates, respectively, to stop the reaction. After quenching, the plates were shaken on the vibrator (IKA, MTS 2/4) for 10 min at 600 rpm and then centrifuged at 5594×g for 15 minutes (Thermo Multifuge×3R). Fifty μL supernatant from each well were transported into a 96-well sample plate containing 50 μL of ultra-pure water (Millipore, ZMQS50F01) for LC/MS analysis.

[5] = Stability in human plasma; format: in vitro ADME; settings: read-out: Plasma Stability T1/2
Protocol: Stability in Human Plasma.
Stock compounds were prepared for testing the stability in human plasma. First, 0.05 M sodium phosphate and 0.07 M NaCl buffer, pH 7.4, were pre-heated. In deionized water, 14.505 g/L Na2HPO 12H2O, 1.483 g/L NaH2PO4.2H2O and 4.095 g/L NaCl were dissolved. The basic solution was titrated with the phosphoric acid to pH 7.40. Frozen plasma was quickly thawed at 37° C. The plasma was centrifuged at 3,000 rpm for 8 minutes to remove clots, then pipetted and pooled as the plasma stock for the experiment. Only plasma within the range of pH 7.4 to pH 8 was used. If higher than pH 8, the plasma was discarded. The initial pH of the plasma was not adjusted to pH 7.4 with acid or by bubbling with carbon dioxide. By using a 5% carbon dioxide incubator and PBS buffer, a pH of 7.4 will be reached after the 4-hour equilibrium dialysis time. Plasma was iced until use.
Spiking solution A with 0.5 mM testing compounds was prepared by adding 10 μL of 10 mM test compounds stock solution to 190 μL DMSO. Spiking solution B with 0.02 mM testing compound was prepared by adding 40 μL of spiking solution A to 960 μL of […] sodium phosphate buffer with 0.5% BSA. The plasma and spiking solution B were prewarmed at 37° C. for 5 minutes. Ten μL of pre-warmed spiking solution B was added into the wells designated for all the time points (5, 15, 30, 45, 60 minutes). For the 0-minute timepoint, 400 μL acetonitrile containing internal standard were added to the wells of 0-minute plate and then 90 μL plasma were added. For the other timepoints, 90 μL of pre-warmed plasma were added into the wells (0, 5, 15, 30, 45, 60 minutes) and the timing was started. At 5, 15, 30, 45, 60 minutes, 400 μL acetonitrile containing internal standard were added to the wells of corresponding plates, respectively, to stop the reaction. After quenching, the plates were shaken on a vibrator (IKA, MTS 2/4) for 10 minutes at 600 rpm and then centrifuged at 5594×g for 15 minutes (Thermo Multifuge×3R). Fifty μL of supernatant was transferred from each well into a 96-well sample plate containing 50 μL ultra-pure water (Millipore, ZMQS50F01) for LC/MS analysis.

[6] = Protein binding (plasma equilibrium dialysis); format: in vitro ADME; settings: 5 hours at 37° C.; for fraction unbound at 5 h, 1 μM: read-out: Protein Binding Fraction Bound (converted)
Protocol: For testing protein binding of stock compounds solubilized in DMSO, spiking solutions of test and reference compounds were prepared. Solution A (0.5 mM) was prepared by adding 10 μL of 10 mM stock solution into 190 μL of DMSO. Solution B (0.02 mM) was prepared by adding 8 μL of Solution A into 192 μL of 0.05 M sodium phosphate buffer. The final DMSO concentration in Solution B was 4%.
To prepare test and reference compounds in plasma, a 96-well plate with 380 μL aliquots of plasma in the wells designed for plasma and buffer, respectively. Twenty μL of Solution B (0.02 mM of test and reference compounds) were spiked into the pre-loaded plasma in the 96-well plate. The final test concentration is 1 μM containing 0.2% DMSO.
For dialysis sample loading a plasma again buffer system was prepared by applying aliquots of 100 μL of blank dialysis buffer to the receiver side of dialysis chambers and then applying aliquots of 100 μL of the plasma spiked with test and reference compounds to the donor side of the dialysis chamber. A 25-μL aliquot of the plasma spiked with test and reference compounds was added into a 96-well sample preparation plate as T″0″ plasma samples. Aliquots were mixed with the same volume of blank buffer (50:50, volume:volume). Samples were quenched with 200 μL of acetonitrile containing internal standard. The dialysis block was covered and a shaken at 60 rpm for 5 hours at 37° C.
After a 5-hour incubation, dialyzed samples were prepared from 25-μL aliquots from both the donor and receiver sides of the dialysis apparatus into new sample preparation plates. The aliquots were mixed with same volume of opposite matrixes. The samples were quenched with 200 μL acetonitrile containing internal standard. All 0-hour and 5-hour samples were vortexed at 600 rpm for 10 min followed by centrifugation at 5594×g for 15 minutes (Thermo Multifuge×3R). Fifty μL of the supernatants were transferred to anew 96-well plate and mixed with 50 μL Milli-Q water. The sample plate was covered and frozen at −20° C. until LC/MS/MS analysis.

recombinant full-length human hydroxyacid oxidase 1 (HAO1), the equivalent of hGOX, sequence (Q9UJM8 whole entry): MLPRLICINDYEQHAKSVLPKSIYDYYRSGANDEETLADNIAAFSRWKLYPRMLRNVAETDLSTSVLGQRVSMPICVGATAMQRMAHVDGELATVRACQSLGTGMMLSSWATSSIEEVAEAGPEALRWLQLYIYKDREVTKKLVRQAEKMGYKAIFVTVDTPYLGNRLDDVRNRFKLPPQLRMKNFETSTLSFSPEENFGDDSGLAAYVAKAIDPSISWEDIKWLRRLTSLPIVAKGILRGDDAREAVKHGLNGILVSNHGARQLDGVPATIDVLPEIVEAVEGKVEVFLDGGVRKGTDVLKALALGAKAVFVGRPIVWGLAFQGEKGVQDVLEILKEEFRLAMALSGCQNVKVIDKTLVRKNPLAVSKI

Row | SMILES | pIC50 [1] | solubility at 1 h [2] [µM] | solubility at 1 h [3] [µM] | CLint scaled at 1 μM [4] [mL/min/kg] | half-life at 1 μM [4] [h] | half-life at 2 μM [5] [h] | recovery at 5 h, 1 μM [6] [%] | fraction unbound at 5 h, 1 μM [6]
1 | O=C(O)c1nn[nH]c1Oc1cccc(C2CCCC2)c1 [Example I-267, 5-(3-Cyclopentylphenoxy)-1H-1,2,3-triazole-4-carboxylic acid] | 7.46 | 79.8 (≈ 21.8 µg/mL) | 82.6 (≈ 22.6 µg/mL) | < 0.15 | > 83.3 | 1.15 | 113 | –
2 | O=C(O)c1nn[nH]c1Oc1cccc(C2CCCCC2)c1 [Example I-268, 5-(3-Cyclohexylphenoxy)-1H-1,2,3-triazole-4-carboxylic acid] | 7.29 | 97.6 (≈ 28 µg/mL) | 111 (≈ 31.9 µg/mL) | 84.2 | 0.344 | 1.84 | 106 | –
3 | COc1cc(-c2ccc(Oc3[nH]nnc3C(=O)O)cc2)ccc1F [Example I-271, 5-((4′-Fluoro-3′-methoxy-[1,1′-biphenyl]-4-yl)oxy)-1H-1,2,3-triazole-4-carboxylic acid] | 8.15 | 110 (≈ 36.2 µg/mL) | 90.1 (≈ 29.7 µg/mL) | 3.49 | 8.31 | 2.82 | 110 | 0.01
4 | Cc1ccc(-c2ccc(Sc3[nH]nnc3C(=O)O)cc2)cc1 [Example I-129, 5-((4′-Methyl-[1,1′-biphenyl]-4-yl)thio)-1H-1,2,3-triazole-4-carboxylic acid] | 7.39 | 116 (≈ 36.1 µg/mL) | 72.7 (≈ 22.6 µg/mL) | 21.6 | 1.34 | 1.44 | 113 | –
5 | CC(C)=Cc1cccc(Oc2[nH]nnc2C(=O)O)c1 [Example I-286, 5-(3-(2-Methylprop-1-en-1-yl)phenoxy)-1H-1,2,3-triazole-4-carboxylic acid] | 7.85 | 92.6 (≈ 24 µg/mL) | 95.8 (≈ 24.8 µg/mL) | 15.1 | 1.92 | 3.45 | 103 | 0.002
6 | O=C(O)c1nn[nH]c1Oc1ccc(C2CC2)cc1 [Example I-294, 5-(4-Cyclopropylphenoxy)-1H-1,2,3-triazole-4-carboxylic acid] | 7.28 | 108 (≈ 26.4 µg/mL) | 108 (≈ 26.4 µg/mL) | 3.4 | 8.52 | 1.71 | 111 | –
7 | C=Cc1ccc(Oc2[nH]nnc2C(=O)O)cc1 [Example I-285, 5-(4-Vinylphenoxy)-1H-1,2,3-triazole-4-carboxylic acid] | 7.42 | 101 (≈ 23.4 µg/mL) | 97.6 (≈ 22.6 µg/mL) | < 0.15 | > 83.3 | 8.02 | 98.8 | 0.012
8 | O=C(O)c1nn[nH]c1Oc1ccc(C2CCC2)cc1 [Example I-275, 5-(4-Cyclobutylphenoxy)-1H-1,2,3-triazole-4-carboxylic acid] | 7.66 | 115 (≈ 29.8 µg/mL) | 110 (≈ 28.5 µg/mL) | 18.3 | 1.58 | 1.7 | 98.5 | –
9 | O=C(O)c1nn[nH]c1Oc1ccc(C2CCCC2)cc1 [Example I-265, 5-(4-Cyclopentylphenoxy)-1H-1,2,3-triazole-4-carboxylic acid] | 7.60 | 107 (≈ 29.2 µg/mL) | 100 (≈ 27.4 µg/mL) | 18.6 | 1.55 | 1.44 | 110 | –

From US11389456B2, “Compounds and methods for treating oxalate-related diseases” (OxaluRx, Inc., priority 2018, dated 2022)
